One compound from US20140243197A1, “CARBAMOYLMETHOXY- AND CARBAMOYLMETHYLTHIO- AND CARBAMOYLMETHYLAMINO BENZAMIDES FOR COMBATING INVERTEBRATE PESTS” (BASF SE, priority 2011, published 2014) can be followed below.

Test [1] relates to Spodoptera eridiana. As to the kind of experiment: Southern armyworm foliar spray test on lima bean plants, mortality. The conditions noted are these: 96 h, 2nd instar larvae, lima bean foliage sprayed, assessed 4 days after treatment, read-out: mortality in comparison with untreated controls. Format: in vivo. On the procedure:
The active compounds were formulated in cyclohexanone as a 10,000 ppm solution supplied in tubes. The tubes were inserted into an automated electrostatic sprayer equipped with an atomizing nozzle and they served as stock solutions for which lower dilutions were made in 50% acetone:50% water (v/v). A nonionic surfactant (Kinetic) was included in the solution at a volume of 0.01% (v/v).
Lima bean plants (variety Sieva) were grown 2 plants to a pot and selected for treatment at the 1st true leaf stage. Test solutions were sprayed onto the foliage by an automated electrostatic plant sprayer equipped with an atomizing spray nozzle. The plants were dried in the sprayer fume hood and then removed from the sprayer. Each pot was placed into perforated plastic bags with a zip closure. About 10 to 11 armyworm larvae were placed into the bag and the bags zipped closed. Test plants were maintained in a growth room at about 25° C. and about 20-40% relative humidity for 4 days, avoiding direct exposure to fluorescent light (24 hour photoperiod) to prevent trapping of heat inside the bags. Mortality and reduced feeding were assessed 4 days after treatment, compared to untreated control plants.

The test system of test [2] is Plutella xylostella. As to the kind of experiment: Diamond backmoth leaf-dip test on cabbage leaves, mortality. In kind it is in vivo. The conditions noted are these: 3rd instar larvae, cabbage leaves dipped, recorded 72 hours after treatment, read-out: mortality in comparison with untreated controls. The procedure: The active compound was dissolved at the desired concentration in a mixture of 1:1 (vol:vol) distilled water: aceteone. Surfactant (Alkamuls® EL 620) was added at a rate of 0.1% (vol/vol). The test solution was prepared at the day of use.
Leaves of cabbage were dipped in test solution and air-dried. Treated leaves were placed in petri dishes lined with moist filter paper and inoculated with ten 3rd instar larvae. Mortality was recorded 72 hours after treatment. Feeding damages were also recorded using a scale of 0-100%.

As a reminder, the mortality is the share of the test organisms that died. Regarding `CNC(=O)CONC(=O)c1cc(Cl)cc(C)c1NC(=O)c1cnn(CC(F)(F)F)c1-c1ncccc1Cl` [Compound 1-1, 5-(3-chloro-pyridin-2-yl)-1-(2,2,2-trifluoro-ethyl)-1H-pyrazole-4-carboxylic acid (4-chloro-2-methyl-6-methylcarbamoylmethoxycarbamoyl-phenyl)-amide], the mortality at 500 ppm in test [1] and in test [2] was 100% in each case.
